Data reported in PubChem BioAssay (NCI).
Values joined by “and” are separate entries in the source; they are usually repeats but may differ in a detail not shown here. Identical values can stand only once.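 Where inhibition never reached the appropriate level, the endpoint shown equals the highest concentration tested. Otherwise, values were interpolated linearly from a five-concentration, 48-hour dose response in 96-well plates. GI50: concentration for 50% inhibition of growth. TGI denotes the concentration required for complete inhibition of growth.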

Test system: MDA-MB-468 breast
Test: inhibition of tumour cell growth, NCI panel, 48 h

SMILES	GI50	TGI
Nc1c(C(=O)Nc2cccc(Br)c2)sc2nc3c(cc12)C(O)CCC3 (stereo not given)	237 nM	31700 nM
Cc1c(C(=O)O[C@H]2[C@@H]3[C@H](C)CC[C@H]3[C@]3(C)O[C@@]2(C2CCCCC2)C[C@H]3OC(=O)CO)ccc2ccccc12	8120 nM	16100 nM
O=C(Nc1ccc(I)cc1F)c1cc(I)ccc1O	808 nM	2460 nM
CCOC(=O)c1ccccc1-c1c2ccc(=[N+](C)C)cc-2oc2cc(N(C)C)ccc12	46.9 nM	410 nM
C=CCCC(=O)N1C=CC(=O)[C@H](O)[C@@H]1/C=C/c1ccccc1	5120 nM	22300 nM
CO[C@H](C(=O)O)[C@@H]1Cc2cc3cc(OC4CC(OC5CC(O)C(O)C(C)O5)C(O)C(C)O4)c(C)c(O)c3c(O)c2C(=O)[C@H]1OC1CC(OC2CC(OC3CC(C)(O)C(O)C(C)O3)C(O)C(C)O2)C(O)C(C)O1 (stereo not given in full)	159 nM	885 nM
O=C(CCl)Nc1cc(O)c2c(c1)C(=O)c1cccc(O)c1C2=O	1040 nM	2860 nM
Cn1ncc(-c2ccc3c(=O)[nH]nc(CN)c3c2)c1-c1c(F)cc2ccccc2c1C#N	7020 nM	21100 nM
CCCCCc1c(C)[nH]c(/C=C2\N=C(c3ccc[nH]3)C=C2OCc2ccccc2)c1C	96.9 nM and 23.5 nM	764 nM and 268 nM
CC(=O)C1(O)Cc2c(O)c3c(c(O)c2C(OC2CC(N)C(O)C(C)O2)C1)C(=O)c1ccccc1C3=O (stereo not given)	11.9 nM	39.8 nM
COc1cc(-c2nn(-c3ccc(NC(=O)c4cc(Cl)cc(Cl)c4)cc3)cc2-c2ccncc2)ccc1Cl	> 100000 nM	> 100000 nM
Oc1ccc(Cl)cc1-c1cc(-c2ccc(F)cc2)n[nH]1	1350 nM	5350 nM
CCCn1c(N)c(C(=O)CNc2ccc(I)cc2)c(=O)[nH]c1=O		> 100000 nM
COc1cccc(C2=C(c3cn(C)c4cccc(OC)c34)C(=O)NC2=O)c1	6880 nM	> 25000 nM
C#Cc1cc2c(N)c(C(=O)c3cc(OC)c(OC)c(OC)c3)[nH]c2cc1OC	497 nM	43200 nM
OC(COc1cccc2ccccc12)CN1CCN(c2ccccc2Cl)CC1 (stereo not given)	15300 nM	30100 nM
CC1(C)[C@@H](OC(N)=O)C=C[C@]2(C=O)[C@H]3CC[C@]4(C)[C@@H](c5ccc(=O)oc5)[C@@H](Cl)C[C@]4(O)C3=CC[C@@H]12	6.13 nM	16.1 nM
Oc1c(CN2CCOCC2)cc(COCc2ccccc2)c2cccnc12	2390 nM	7190 nM
CC(C)(C)Nc1nc2c(OCCc3ccccc3)cccn2c1-c1cccc(F)c1	3510 nM	22900 nM

SMILES	GI50	TGI
CC(=O)N1CCN(CCOc2ccc(C3CCN(C4=Nn5c(nnc5C(F)(F)F)CC4)CC3)cc2)CC1	3720 nM	61100 nM
CC[C@H](NC(=O)[C@H](CS(=O)(=O)CC1CC1)N[C@@H](c1ccc(F)cc1)C(F)(F)F)C(=O)C(=O)NC1CC1	49900 nM	> 100000 nM
CN1CCN(CCOc2ccc(-c3cnc4c(-c5ccc(F)cc5)cnn4c3)cc2)CC1	1540 nM	3190 nM
O=C(O)C(=O)CBr	> 48300 nM and 16900 nM	> 72400 nM and 33300 nM
COc1cccc(-c2cc(=O)c3cc(Cl)cnc3[nH]2)c1	886 nM	> 100000 nM
ClCC#CCSc1ncnc2c1ncn2CC#CCCl	1430 nM	3200 nM
O=[N+]([O-])c1cc(F)c2cccnc2c1O	14700 nM	47200 nM
COc1cc([C@@H]2c3cc4c(cc3C(OC3O[C@@H]5COC(C)O[C@H]5[C@H](O)[C@H]3O)C3COC(=O)[C@@H]32)OCO4)cc(OC)c1O (stereo not given in full)	1100 nM	4500 nM
c1ccc2nc(OCCN3CC3)ccc2c1	2770 nM	7870 nM
CC(C)(C)C(=O)OCc1nc2cc3c(cc2c(=O)[nH]1)CCC3=O	> 100000 nM	> 100000 nM
O=[As]c1ccc(C(=O)c2ccc(Oc3ccccc3)cc2)cc1 (stereo not given)	26.6 nM	101 nM
CCCCCCNC(=O)Oc1ccc(/C(=C(\C)c2ccccc2)c2ccc(OCCN(CC)CC)cc2)cc1	2920 nM	9720 nM
COC(=O)[C@]12CC[C@@H](C)[C@H](C)[C@@H]1C1=CC[C@@H]3[C@@]4(C)CC(=O)[C@H](OC(=O)c5ccco5)[C@@]5(C)COC(=C45)C[C@@]3(C)[C@]1(C)CC2	420 nM	> 100000 nM
COc1ccc2[nH]c(O)c(/C=c3/cc4c(c(-c5ccc(F)cc5)n3)=Nc3ccccc3-4)c2c1	2220 nM	5470 nM
COc1ccc(-c2c(N)n[nH]c2-c2cc(OC)c(OC)c(OC)c2)cc1	94.6 nM	2870 nM
CN(C)CCCOc1c2ccc(Cl)cc2nc2c1oc1ccc(Cl)cc12	2120 nM	7030 nM
CCOc1cc(C(C)(C)C)ccc1C1=N[C@@](C)(c2ccc(Cl)cc2)[C@@](C)(c2ccc(Cl)cc2)N1C(=O)N1CCN(CCS(C)(=O)=O)CC1	2100 nM	6340 nM
CN(C)CCNc1nc2ccccc2c2c(=O)c3ccccc3sc12	1450 nM	3310 nM
CCCCOc1ccc(/C=N/Nc2cc(C)nc3ccc(Cl)cc23)cc1	1530 nM	2970 nM
